The text below walks through data of US11083696B2, “Dispersion anaesthetic device” (UNIVERSITY COLLEGE CARDIFF CONSULTANTS LIMITED, priority 2011, dated 2021).

Data set [1] is described as follows: Gelation of liquid anaesthetics by gelators (heat-cool cycles, inversion). Type of data set: physicochemical. Here is the method: […] The solubility of the gelator at room temperature was observed by visual inspection, and samples subjected to a series of heat-cool cycles (hot ˜60° C., cold ˜5° C.) until solubility of the gelator was complete (or ceased to improve) and a clear gel was formed on cooling. A final heating cycle was carried out and the samples allowed to cool slowly to room temperature (cooling rate uncontrolled). […] Further inspection was carried out after 24 hours, and no difference in results was observed. On storage, sealed samples remain gelled for at least 12 months.
A series of gelators were investigated with chain lengths […] corresponding to gelators G3-G8.

Data set [2] is described as follows: Release into carrier gas, testing chamber 1 (60 ml glass jar, anaesthetic monitor). Type of data set: physicochemical. The note with it: for Sevo % @ 30 s / time to 0% Sevo/s: HPFP only, No N2 flow. Here is the method:
Specifically, a 60 ml glass jar fitted with septum, N2 inlet and 1 ml syringe (open to air). Typically tests used a 3 ml sample or equivalent with respect to anaesthetic content. Headspace concentrations were sampled from gas flow out (no recirculation) and measured with a standard anaesthetic monitor using a balloon to provide a nitrogen atmosphere or with or 2 L min^−1 N2 passed over or bubbled through sample;
The formulations described in Tables 1-4 were tested using testing chamber 1, the experimental set-up for which is described in FIG. 1a, by addition of an appropriate quantity of formulation to a 60 ml glass jar fitted with septum, N2 inlet and (needle free) 1 ml syringe (open to air) via a plastic tube from within which the outflow gas was continuously sampled and monitored for anaesthetic concentration. Typically a 3 ml sample was used, or an equivalent amount with respect to anaesthetic content. A balloon was used to provide a nitrogen atmosphere with no flow-through, or a continuous flow of nitrogen as a carrier gas was passed over or bubbled through the sample at a controlled flow-rate. Headspace fluorocarbon concentrations were sampled from gas outflow (no recirculation) and measured using a standard anaesthetic monitor (Capnomac Ultima, Datex Instrumentarium Inc., Heslinki, Finland), monitoring on either sevoflurane or isoflurane settings, depending on the anaesthetic in the formulation.

The subject of data set [3] is reaction to a standard surgical stimulus (skin incision). The note with it: average adult male at age 40 years; 1 atmosphere; cited from earlier work.
Where [4] appears, read: 1 wt % gelator after 2x heat-cool cycling.
The mark [5] stands for this setting: 1st value column (amount equivalent to J1).
Setting [6] is: 3rd value column (amount equivalent to J5).

As to `CC(C)OC(=O)[C@@H](O)[C@H](O)CCCCCCCC[C@@H](O)[C@H](O)C(=O)OC(C)C` (racemic) [G4], the “gelation of sevoflurane at lower gelator concentration” value in data set [1] (0.1 wt % gelator) is reported as “without success”. In data set [1] (setting [4]), the “Gel state of anaesthetic: Desfluorane” value is recorded as “Yes”; the “Gel state of anaesthetic: Isoflurane” value was “No^†”; the “Gel state of anaesthetic: Sevoflurane” value was “Good gels and Yes”. In addition, the “gel state of isoflurane” value in data set [1] (1.5 wt % gelator) is reported as “partially gelled”. Moreover, the “gel state of isoflurane” value in data set [1] (2, 3, and 5 wt % gelator) is “gels and stable isoflurane gels were obtained”.

Regarding `FC(C(F)C(F)(F)C(F)(F)F)C(F)(F)F` (stereo not shown) [HPFP, 2H, 3H-perfluoropentane], the “Time to 0% sevoflurane/s” value was 220 s in data set [2] (2 l min−1 N2 Over sample, 3 ml HPFP) and less than 220 s in data set [2] (2 l min−1 N2 through sample, 3 ml HPFP). Further, in data set [2] (2 l min−1 N2 Over sample, 3 ml HPFP, monitored as sevoflurane), the “sevoflurane % @ 30 s” value worked out at 1.6%. The “Sevo % @ 30 s” value in data set [2] (setting [5]) stood at 1.9%; in data set [2] (2nd value column (equivalent formulation unclear)), 2.0%; in data set [2] (setting [6]), 2.8%; in data set [2] (4th value column (equivalent formulation unclear)), 2.9%. In addition, the “time to 0% Sevo/s” value in data set [2] (setting [5]) stood at 135 s; in data set [2] (2nd value column), 140 s; in data set [2] (setting [6]) it was 335 s; in data set [2] (4th value column), 900 s.

Take `FC(F)OC(F)C(F)(F)F` (stereo not shown) [desflurane]: the “MAC value of 1 (release level)” value in data set [3] is 6 volume %.

In the case of `FC(F)OC(F)(F)C(F)Cl` (stereo not shown) [enflurane], the “MAC value of 1 (release level)” value in data set [3] is 1.6 volume %.

For the molecule `FC(F)(F)C(Cl)Br` (stereo not shown) [halothane], the “MAC value of 1 (release level)” value in data set [3] is 0.76 volume %.

Regarding `FC(F)OC(Cl)C(F)(F)F` (stereo not shown) [isoflurane], the “MAC value of 1 (release level)” value in data set [3] is given as 1.2 volume %.

On to `FCOC(C(F)(F)F)C(F)(F)F` [sevoflurane], for which, in data set [3], the “MAC value of 1 (release level)” value is recorded as 2 volume %. Besides, the “time of drop to zero anaesthetic concentration” value in data set [2] (3 ml sevoflurane, 2 L min^−1) lay in the range of 15 to 16 min. In addition, the “plateau sevoflurane concentration in carrier gas” value in data set [2] (3 ml sevoflurane, 2 L min^−1 carrier gas) is roughly 13%. The “anaesthetic concentration in the carrier gas outflow stream” value in data set [2] (first 10 minutes, 3 ml sevoflurane, 2 L min^−1 through headspace) was 13-15%.
